Assays:
Assay type in all cases: in vivo
[1] = system: house flies (Musca domestica, L.); assay: Fly Bait Test; set-up: key: A: excellent control; B: partial control; C: no control; conditions: 500 parts per million bait in sugar solution; twenty four hours
Method: (§1) Suspensions of the test compounds were prepared by dissolving one gram of compound in 50 milliliters of acetone in which had been dissolved 0.1 gram (10 percent of the weight of compound) of an alkylphenoxy polyethoxyethanol surfactant, as an emulsifying or dispersing agent. The resulting solution was mixed into 150 milliliters of water to give roughly 200 milliliters of a suspension containing the compound in finely divided form. The thus-prepared stock suspension contained 0.5 percent by weight of compound. The test concentrations in parts per million by weight employed in the tests described hereinbelow were obtained by appropriate dilutions of the stock suspension with water. The test procedures were as follows:
Four to six day old adult house flies (Musca domestica, L.) reared according to the specifications of the Chemical Specialties Manufacturing Association (Blue Book, McNair-Dorland Co., N.Y. 1954; pages 243-244, 261) under controlled conditions of 80°±5° F. and 50±5 percent relative humidity, were the test insects. The flies were immobilized by anesthetizing with carbon dioxide and twenty five immobilized individuals, males and females, were transferred to a cage consisting of a standard food strainer about five inches in diameter which was inverted over a wrapping-paper-covered surface. The test compounds were formulated by diluting the stock suspension with a 10 percent (by weight) sugar solution to give a suspension containing 500 parts of test compound per million parts of final formulation, by weight. Ten milliliters of the test formulation were added to a souffle cup containing a one-inch square of an absorbent cotton pad. This bait cup was introduced and centered on the blotting paper under the food strainer prior to admitting the anesthetized flies. The caged flies were allowed to feed on the bait for twenty four hours, at a temperature of 80°±5° F. and the relative humidity of 50±5 percent.

[2] = system: southern armyworm (Prodenia eridania, (Cram.)); assay: Southern Armyworm Leaf Spray Test; set-up: key: A: excellent control; B: partial control; C: no control; conditions: 500 parts per million leaf spray; three days
Method: as §1
Larvae of the southern armyworm (Prodenia eridania, (Cram.)), reared on Tendergreen bean plants at a temperature of 80°±5° F. and a relative humidity of 50±5 percent, constituted the test insects.
The test compounds were formulated by diluting the stock suspension with water to give a suspension containing 500 parts of test compound per million parts of final formulation. Potted Tendergreen bean plants of standard height and age were placed on a revolving turntable and sprayed with 100-110 milliliters of test compound formulation by use of a DeVilbiss spray gun set at 10 psig air pressure. This application, which lasted 25 seconds, was sufficient to wet plants to run-off. As a control, 100-110 milliliters of a water-acetone-emulsifier solution containing no test compound were also sprayed on infested plants. When dry, the paired leaves were separated and each one was placed in a 9 centimeter Petri dish lined with moistened filter paper. Five randomly selected larvae were introduced into each dish and the dishes were closed. The closed dishes were labeled and held at 80°-85° F. for three days. Although the larvae could easily consume the whole leaf within twenty-four hours, no more food was added. Larvae which were unable to move the length of the body, even upon stimulation by prodding, were considered dead. Percent mortality was recorded for various concentration levels.

[3] = system: two-spotted mite (Tetranychus urticae Koch); assay: Mite Foliage Spray Test; set-up: key: A: excellent control; B: partial control; C: no control; conditions: 500 parts per million foliage spray; six days
Method: as §1
Adults and nymphal stages of the two-spotted mite (Tetranychus urticae Koch), reared on Tendergreen bean plants at 80±5 percent relative humidity, were the test organisms. Infested leaves from a stock culture were placed on the primary leaves of two bean plants six to eight inches in height, growing in a two-and-a-half inch clay pot. 150-200 Mites, a sufficient number for testing, transferred from the excised leaves to the fresh plants in a period of twenty four hours. Following the twenty four hour transfer period, the excised leaves were removed from the infested plants. The test compounds were formulated by diluting the stock suspension with water to give a suspension containing 500 parts of test compound per million parts of final formulation. The potted plants (one pot per compound) were placed on a revolving turntable and sprayed with 100-110 milliliters of test compound formulation by use of a DeVilbiss spray gun set at 40 psig. air pressure. This application, which lasted 25 seconds, was sufficient to wet the plants to run-off. As a control, 100-110 milliliters of a water solution containing acetone and emulsifier in the same concentrations as the test compound formulation, but containing no test compound, were also sprayed on infested plants. The sprayed plants were held at 80±5 percent relative humidity for six days, after which a mortality count of motile forms was made. Microscopic examination for motile forms was made on the leaves of the test plants. Any individual which was capable of locomotion upon prodding was considered living.

[4] = system: root-knot nematode (Meloidogyne incognita var. acrita); assay: Nematode Test; set-up: key: 1: severe galling; equal to untreated control; 2: moderate galling; 3: light galling; 4: very light galling; 5: no galling; conditions: 10 ml of 500 parts per million formulation per jar of soil; cucumber indicator crop, approximately three weeks
Method: as §1
Infective migratory larvae of the root-knot nematode, (Meloidogyne incognita var. acrita) were reared in the greenhouse on roots of Rutgers variety tomato plant. Infected tomato plants were removed from the culture and the roots were chopped very finely. A small amount of inoculum from the roots was added to pint Mason jars containing approximately 180 cc of soil. The jars containing the inoculum and soil were capped and incubated for one week at room temperature. During this period eggs of the nematode hatched and the larvae forms migrated into the soil.
The test compounds were formulated by diluting the stock suspension with water to give a suspension containing 500 parts of test compound per million parts of final formulation. 10 milliliters of the test formulation was added to each of two jars for each dosage treated. As a control 10 milliliters of a water-acetone-emulsifier solution containing no test compound was also added to jars containing nematode larvae. The jars were capped and the contents thoroughly mixed on a kale mill for five minutes. The jars remained capped at room temperature for a period of 48 hours and the contents were then transferred to 3 inch pots. Subsequently, the pots were seeded to cucumber as an indicator crop and placed in the green house where they were cared for in the normal fashion for growing potted cucumber for approximately three weeks. These cucumber plants were then removed from the pots, the soil washed from the roots and the amount of galling visually rated.

[5] = system: Mexican bean beetle (Epilachna varivestis, Muls.); assay: Mexican Bean Beetle Leaf Spray Test; set-up: key: A: excellent control; B: partial control; C: no control; conditions: 500 parts per million leaf spray; fourth instar larvae; three days
Method: as §1
Fourth instar larvae of the Mexican bean beetle (Epilachna varivestis, Muls.), reared on Tendergreen bean plants at a temperature of 80°±5° F. and 50±5 percent relative humidity, were the test insects.
The test compounds were formulated by diluting the stock suspension with water to give a suspension containing 500 parts of test compound per million parts of final formulation. Potted Tendergreen bean plants of standard height and age were placed on a revolving turntable and sprayed with 100-110 milliliters of test compound formulation by use of a DeVilbiss spray gun set at 10 psig air pressure. This application, which lasted 25 seconds, was sufficient to wet plants to run-off. As a control, 100-110 milliliters of a water-acetone-emulsifier solution containing no test compound were also sprayed on infested plants. When dry, the paired leaves were separated and each was placed in a 9 centimeter Petri dish lined with moistened filter paper. Five randomly selected larvae were introduced into each dish, and the dishes were closed. The closed dishes were labeled and held at a temperature of 80°±5° F. for three days. Although the larvae could easily consume the leaf within 24 to 48 hours, no more food was added. Larvae which were unable to move the length of the body, even upon stimulation, were considered dead.

[6] = system: bean aphid (Aphis fabae Scop.); assay: Bean Aphid Foliage Spray Test; set-up: key: A: excellent control; B: partial control; C: no control; conditions: 500 parts per million foliage spray; 24 hour holding period
Method: as §1
Adults and nymphal stages of the bean aphid (Aphis fabae Scop.) reared on potted dwarf nasturtium plants at 65°-70° F. and 50-70 percent relative humidity, constituted the test insects. For testing purposes, the number of aphids per pot was standardized to 100-150 by trimming plants containing excess aphids.
The test compounds were formulated by diluting the stock suspension with water to give a suspension containing 500 parts of test compound per million parts of final formulation.
The potted plants (one pot per compound tested) infested with 100-150 aphids, were placed on a revolving turntable and sprayed with 100-110 milliliters of test compound formulation by use of a DeVilbiss spray gun set at 40 psig. air pressure. This application, which lasted 25 seconds, was sufficient to wet the plants to run-off. As a control, 100-110 milliliters of a water-acetone-emulsifier solution containing no test compound were also sprayed on infested plants. After spraying, the pots were placed on their sides on a sheet of white standard mimeograph paper which had been previously ruled to facilitate counting. Temperature and humidity in the test room during the 24 hour holding period were 65°-70° F. and 50-70 percent, respectively. Aphids which fell onto the paper and were unable to remain standing after being uprighted were considered dead. Aphids remaining on the plants were observed closely for movement and those which were unable to move the length of the body upon stimulation by prodding were considered dead. Percent mortality was recorded for various concentration levels.

Structure (SMILES)	H. Fly, pesticidal activity rating [1]	S. Armyworm, pesticidal activity rating [2]	Mite, pesticidal activity rating [3]	Nematodes, nematocidal toxicity rating (galling) [4]	M. Bean Beetle, pesticidal activity rating [5]	Aphid, pesticidal activity rating [6]
CC1OCSC1=NOC(=O)N(C)SSc1ccc(Cl)cc1 (stereo not drawn)	A	A	A	1	A	A
CCCCSSN(C)C(=O)ON=C1SC(C)(C)C(=O)N1C	A	A	A	5	A	A
CC1OCSC1=NOC(=O)N(C)SSc1ccccc1 (stereo not drawn)	A	A	A	2	A	A
CC(C)SSN(C)C(=O)ON=C1SC(C)(C)C(=O)N1C	A	A	C	1	A	A
CN(SSC1CCCCC1)C(=O)ON=C1SC(C)(C)C(=O)N1C	C	A	C	2	A	A
CCCCCCCCSSN(C)C(=O)ON=C1SCOC1C (stereo not drawn)	A	A	A	1	A	A
CN(SSc1ccc(C(C)(C)C)cc1)C(=O)ON=C1CSCCS1	A	A	A	4	A	A
CC(C)SSN(C)C(=O)ON=C1SCOC1C (stereo not drawn)	A	A	A	1	A	A
CN(SSc1ccccc1)C(=O)ON=C1SC(C)(C)C(=O)N1C	B	A	C	1	A	A
CSSN(C)C(=O)ON=C1SCOC1C (stereo not drawn)	A	A	A	1	A	A
CC1OCSC1=NOC(=O)N(C)SSC(C)(C)C (stereo not drawn)	A	A	A	1	A	A
CN(SSc1ccc(Cl)cc1)C(=O)ON=C1SC(C)(C)C(=O)N1C	B	A	C	1	A	A
CN(SSc1ccc(C(C)(C)C)cc1)C(=O)ON=C1SC(C)(C)C(=O)N1C	C	A	C	1	A	C
Cc1ccc(SSN(C)C(=O)ON=C2SC(C)(C)C(=O)N2C)cc1	C	A	C	1	A	C
CN(SSC(C)(C)C)C(=O)ON=C1CSCCS1	A	A	A	1	A	A
